{"source": "patent US20230390234A1", "about": "“COMPOSITION INHIBITING MUSCLE LOSS OR PROMOTING MUSCLE FORMATION THROUGH SKIN-DERIVED EXOSOMES” (EX HEALTHCARE INC., priority 2021, published 2023)", "key": {"miRNA-26a": {"test_system": "miRNA-26a", "assay": "Level of miRNA-26a in exosomes isolated from treated fibroblasts (real-time qPCR)", "format": "cell-based, human", "protocol": "After treating the subcultured passage 27 FB with betaine for 48 hours, the medium was collected and centrifuged at 3000×g for 30 minutes. After centrifugation, only the supernatant was recovered and transferred to Ultra-15 Centrifugal Filter Units (Amicon, MERCK, C7715) and centrifuged at 4000×g for 40 minutes. Only the supernatant was recovered, Total Exosome Isolation Reagent (Invitrogen, Cat No #4478539) was added at ½ the volume of the supernatant, and the mixture was allowed to react at 4° C. overnight. The next day, after centrifugation at 10000×g for 1 hour, the supernatant was removed by suction, and then a final exosome pellet was re-suspended in PBS. The exosomes obtained in the present example are hereinafter referred to as “fibroblast-derived exosomes”.\n2×10^6 FB cells were inoculated onto a 75 T flask, cultured for 24 hours, and then treated with betaine (0.1, 1 and 10 mM). After the cells were additionally cultured for 48 hours, exosomes were isolated by the method of Example 1-2, and microRNA (hereinafter described as miRNA) was extracted from the exosomes isolated from the culture medium using an RNeasy plus mini kit (Qiagen, Germany) according to the manufacturer's protocol.\nReal-time qPCR was performed with a tagman probe targeting mature RNA. The relative expression level of the intracellular target miRNA was normalized with the expression level of RNU48, which is used as a housekeeping gene during miRNA quantification, and then shown as a relative %. The relative expression of miRNA-26a in exosomes was normalized with the expression of […], which is used as a housekeeping gene during quantification of miRNA in fibroblast exosomes, and then shown as a relative %. For all real-time qPCR analyses, an Applied Biosystems 7500 (Applied Biosystems) apparatus was used.\nThe FB was treated with the material shown in the following Table 1 to isolate exosomes in the same manner as in Example 1-1, and the level of miRNA-26a was confirmed in the exosomes by the method in Example 1-4.\nThereafter, after fibroblasts (FB) were treated with the Camellia japonica flower extract for 48 hours, exosomes were isolated by the method in Example 1-2. Furthermore, the level of miR-26a was confirmed in exosomes isolated from the culture medium by the method in Example 1-4. As a result of the confirmation, it could be confirmed that the level of miRNA-26a was increased in the exosomes isolated from the FB treated with the Camellia flower extract at a concentration of 50 ppm compared to the control which was an untreated group (FIG. 9)."}, "MURF1 [1]": {"test_system": "MURF1", "assay": "Muscle loss marker expression in differentiated C2C12 cells, qPCR", "format": "cell-based, mouse", "details": "differentiated C2C12, 48 hours; betaine 0.1 mM or exosomes about 20 μg/ml, FIG. 4A", "protocol": "(§1) C2C12 cells were inoculated onto a 6-well plate at a concentration of 1.5×10^5 cells/well and cultured for 24 hours. Thereafter, the medium was exchanged with a medium supplemented with 2% horse serum, and the cells were further cultured for 72 hours to promote the differentiation of C2C12 cells. After the differentiation was completed, the cells were treated with betaine at 0.1 mM or fibroblast-derived exosomes (about 20 μg/ml) obtained in Example 1-2 and further cultured for 48 hours. Total RNA was extracted with an RNeasy plus mini kit and cDNA was synthesized with SuperScript™ III (Invitrogen, USA). Thereafter, qPCR was performed with a target gene taqman probe, and then analysis was performed.\n(§2) C2C12 cells were inoculated onto a 6-well plate at a concentration of 1.5×10^5 cells/well and cultured for 24 hours. Thereafter, the medium was exchanged with a medium supplemented with 2% horse serum, and the cells were further cultured for 72 hours to promote the differentiation of C2C12 cells. After the differentiation was completed, the cells were treated with the Camellia japonica flower extract at 50 ppm or the exosomes (about 20 μg/ml) obtained in Example 4-1 and further cultured for 48 hours. Thereafter, the change in expression of the target gene was confirmed by qPCR by the method in Example 2-1."}, "myostatin [2]": {"test_system": "myostatin", "assay": "Muscle loss marker expression in differentiated C2C12 cells, qPCR", "format": "cell-based, mouse", "details": "differentiated C2C12, 48 hours; betaine 0.1 mM or exosomes about 20 μg/ml, FIG. 4C", "protocol": "as §1, §2"}, "MURF1 [3]": {"test_system": "MURF1", "assay": "Muscle loss marker protein level in differentiated C2C12 cells, western blotting", "format": "cell-based, mouse", "details": "differentiated C2C12, 48 hours; betaine 0.1 or 0.5 mM or exosomes, FIG. 6", "protocol": "(§3) C2C12 cells were inoculated onto a 6-well plate at a concentration of 5×10^5 cells/well and cultured for 24 hours. Thereafter, the medium was exchanged with a medium supplemented with 2% horse serum, and the cells were further cultured for 72 hours to promote the differentiation of C2C12 cells. After the differentiation was completed, the cells were treated with betaine (0.1 and 0.5 mM) or fibroblast-derived exosomes and further cultured for 48 hours. Thereafter, cells were lysed by adding a lysis buffer (1% NP40, 0.05 M Tris-HCl, pH 7.5, 0.15 M NaCl and 0.01 MgCl2) including a protease inhibitor to the C2C12 cells, and the concentration of proteins was measured by a […] (BCA) method. The quantified protein was separated with SDS-PAGE and transferred to a PVDF membrane, and the protein expression level of each muscle loss marker was confirmed with an antibody."}, "myostatin [4]": {"test_system": "myostatin", "assay": "Muscle loss marker protein level in differentiated C2C12 cells, western blotting", "format": "cell-based, mouse", "details": "differentiated C2C12, 48 hours; betaine 0.1 or 0.5 mM or exosomes, FIG. 6", "protocol": "as §3"}, "atrogin-1 [5]": {"test_system": "atrogin-1", "assay": "Muscle loss marker protein level in differentiated C2C12 cells, western blotting", "format": "cell-based, mouse", "details": "differentiated C2C12, 48 hours; betaine 0.1 or 0.5 mM or exosomes, FIG. 6", "protocol": "as §3"}, "MyoD [6]": {"test_system": "MyoD", "assay": "Myogenesis marker expression in differentiated C2C12 cells, qPCR", "format": "cell-based, mouse", "details": "differentiated C2C12, 48 hours; betaine 0.1 mM or exosomes about 20 μg/ml, FIG. 5", "protocol": "as §1"}, "MyoD [7]": {"test_system": "MyoD", "assay": "Myogenesis marker protein level in differentiated C2C12 cells, western blotting", "format": "cell-based, mouse", "details": "differentiated C2C12, 48 hours; betaine 0.1 or 0.5 mM or exosomes, FIG. 7", "protocol": "as §3"}, "C2C12 cells": {"test_system": "C2C12 cells", "assay": "Cytotoxicity of betaine, CCK-8 cell viability in myofibroblasts", "format": "cell-based, mouse", "details": "betaine at different concentrations, 24 hours, CCK-8, FIG. 1B", "protocol": "(§4) As human skin dermal cells, normal human dermal fibroblasts (NHDF, fibroblasts) isolated from adult samples were purchased from LONZA (Cat. CC-2511). As […], C2C12 cells, which are myoblasts isolated and cultured from C3H mice, were purchased from ATCC (CRL-1772).\n(§5) Subcultured passage 27 human fibroblast HS68 (hereinafter referred to as FB) or C2C12 was inoculated onto a 96-well plate at a concentration of 1×10^4 cells/well and cultured in an incubator at 5% CO2 and 37° C. for 24 hours. After culturing, cells were treated with betaine at different concentrations and additionally cultured for 24 hours, and an untreated group was used as a control. After the cells were washed with PBS, the cells were additionally cultured with CCK-8 (DONGJIN, CK04-11) for 2 hours, and absorbance was measured at 450 nm using a microplate reader. From the measured results, relative cell viability according to the betaine treatment concentration was calculated by setting the value of the control to 100."}, "atrogin-1 [8]": {"test_system": "atrogin-1", "assay": "Muscle loss marker expression in differentiated C2C12 cells, qPCR", "format": "cell-based, mouse", "details": "differentiated C2C12, 48 hours; betaine 0.1 mM or exosomes about 20 μg/ml, FIG. 4B", "protocol": "as §1"}, "[9]": {"test_system": "human fibroblast HS68 (FB)", "assay": "Cytotoxicity of betaine, CCK-8 cell viability in fibroblasts", "format": "cell-based", "details": "betaine at different concentrations, 24 hours, CCK-8, FIG. 1A", "protocol": "as §4, §5"}}, "data": [{"compound": "O=c1c(O)c(-c2cc(O)c(O)c(O)c2)oc2cc(O)cc(O)c12", "note": "[Myricetin]", "values": [{"measurement": "miRNA-26a level in exosomes, fold change (vs. control)", "setting": "miRNA-26a; FB treated with 25 uM", "result": 1.599, "unit": "fold"}]}, {"compound": "COc1ccc(-c2cc(=O)c3c(OC)c(OC)c(OC)c(OC)c3o2)cc1OC", "note": "[Nobiletin]", "values": [{"measurement": "miRNA-26a level in exosomes, fold change (vs. control)", "setting": "miRNA-26a; FB treated with 30 uM", "result": 1.447, "unit": "fold"}]}, {"compound": "Copper Tripeptide", "values": [{"measurement": "miRNA-26a level in exosomes, fold change (vs. control)", "setting": "miRNA-26a; FB treated with 10 ppm", "result": 1.743, "unit": "fold"}]}, {"compound": "Camelliaside A", "values": [{"measurement": "miRNA-26a level in exosomes, fold change (vs. control)", "setting": "miRNA-26a; FB treated with 1 ppm", "result": 1.956, "unit": "fold"}]}, {"compound": "O=C1C[C@@H](c2ccc(O)cc2)Oc2cc(O)cc(O)c21", "note": "[Naringenin]", "values": [{"measurement": "miRNA-26a level in exosomes, fold change (vs. control)", "setting": "miRNA-26a; FB treated with 10 uM", "result": 1.854, "unit": "fold"}]}, {"compound": "C[N+](C)(C)CC(=O)O", "note": "[Betaine]", "values": [{"measurement": "expression of MURF1 (qPCR) vs. control", "setting": "MURF1 [1]", "result": "slightly increased"}, {"measurement": "expression of myostatin (qPCR) vs. control", "setting": "myostatin [2]", "result": "almost the same level"}, {"measurement": "protein expression of MURF1 (western blotting)", "setting": "MURF1 [3]", "result": "no change"}, {"measurement": "protein expression of myostatin (western blotting)", "setting": "myostatin [4]", "result": "no change"}, {"measurement": "protein expression of atrogin-1 (western blotting)", "setting": "atrogin-1 [5]", "result": "no change"}, {"measurement": "miRNA-26a level in exosomes, fold change (vs. control)", "setting": "miRNA-26a; FB treated with 1 mM", "result": 1.821, "unit": "fold"}, {"measurement": "level of miRNA-26a in exosomes vs. untreated control", "setting": "miRNA-26a; FB treated with betaine 0.1, 1 and 10 mM, 48 hours, FIG. 3", "result": "increased"}, {"measurement": "expression of MyoD (qPCR) vs. control", "setting": "MyoD [6]", "result": "increased compared to the control, but was not at a significant level"}, {"measurement": "protein expression of MyoD (western blotting)", "setting": "MyoD [7]", "result": "unchanged"}, {"measurement": "cell viability of C2C12", "setting": "C2C12 cells", "result": "no change"}, {"measurement": "expression of atrogin-1 (qPCR) vs. control", "setting": "atrogin-1 [8]", "result": "slightly increased"}, {"measurement": "cell viability of FB", "setting": "[9]", "result": "no change"}]}, {"compound": "L-carnosine", "values": [{"measurement": "miRNA-26a level in exosomes, fold change (vs. control)", "setting": "miRNA-26a; FB treated with 5 ppm (0.0005%)", "result": 1.537, "unit": "fold"}]}, {"compound": "Kojyl carboxy dipeptide-23", "values": [{"measurement": "miRNA-26a level in exosomes, fold change (vs. control)", "setting": "miRNA-26a; FB treated with 10 ppm", "result": 1.483, "unit": "fold"}]}]}
